In brackets after ≈: the same amount, converted by molar mass. Like-named read-outs stand apart in the source and are kept apart here.
What was measured:
[1] = test system: Myzus persicae (URR-O type), sensitive strains; assay: Foliar spray test on larvae of Myzus persicae, sensitive strain; assay type: in vivo; conditions: for LC50: read-out: LC₅₀ (ppm) Sensitive Strain
Protocol: (§1) A solution of the compound is diluted with distilled water containing Tween 20® at a concentration of 100 ppm to prepare a predetermined concentration of the test solution. Malathion emulsion and pirimicarb wettable powder are diluted with distilled water to prepare a predetermined concentration of the test solution, respectively.
(§2) Myzus persicae (URR-O type) distributed from Chiba University, which were reared for succesive generations, were used as a group of sensitive strains. Myzus persicae resistant to malathion and pirimicarb which were collected from Aburahi Laboratory of Shionogi & Co., Ltd. and reared for succesive generations while selecting those resistant to these drugs were used as a group of resistant strains.
(§3) A polyethylene cup (diameter 6 cm, depth 4 cm) was filled with 0.3 % agar gel and a piece of Chinese cabbage leaf (3x3 cm) was placed on the gel. One apterous adult of Myzus persicae was put on the leaf and allowed to keep at 25 °C for 24 hours to make larviposition. After removal of the adult, 2 ml of the test solution was applied to the foliage under a rotary sprayer; and larvae of Myzus persicae was allowed to keep at 25 °C for 48 hours. Then the mortality of the larvae was determined and the value of LC₅₀ was calculated by the method of Billis. [Bliis, Ann. Appl. Biol.,22, 134;307 (1935)].

[2] = test system: Myzus persicae resistant to malathion and pirimicarb; assay: Foliar spray test on larvae of Myzus persicae, strain resistant to malathion and pirimicarb; assay type: in vivo; conditions: for LC50: read-out: LC₅₀ (ppm) Resistant Strain
Protocol: as §1, §2, §3

[3] = 7.8 ppm, larvae, 25 °C, 48 hours after spraying
[4] = 15.6 ppm, larvae, 25 °C, 48 hours after spraying
[5] = 31.3 ppm, larvae, 25 °C, 48 hours after spraying
[6] = 62.5 ppm, larvae, 25 °C, 48 hours after spraying
[7] = 125 ppm, larvae, 25 °C, 48 hours after spraying
[8] = 250 ppm, larvae, 25 °C, 48 hours after spraying
[9] = larvae, 48 hours, ( ) means 95 % confidence limit

Question: What does the source list for `Cc1nc(N(C)C)nc(OC(=O)N(C)C)c1C` [pirimicarb, reference compound]?
Answer: LC50 ([1]; 48 h): 8.2 µg/mL (≈ 34.4 µM); LC50 ([2]; 48 h): > 1920 µg/mL

Question: How did the mortality at 7.8 ppm [1, 3] turn out when `N[C@@H](CCSC(F)F)C(=O)O` [Compound I ^a, L-difluoromethylhomocysteine] was run?
Answer: 0%

Question: And the mortality at 15.6 ppm [1, 4]?
Answer: 8.7%

Question: What about the mortality at 31.3 ppm [1, 5] of the same compound?
Answer: 4.8%

Question: And the mortality at 62.5 ppm [1, 6]?
Answer: 57.1%

Question: What about the mortality at 125 ppm [1, 7] of the same compound?
Answer: 100%

Question: And the mortality at 250 ppm [1, 8]?
Answer: 100%

Question: What about the LC50 [1, 9] of the same compound?
Answer: 52.9 µg/mL (≈ 286 µM)

Question: And the mortality at 7.8 ppm [2, 3]?
Answer: 5%

Question: And the mortality at 15.6 ppm [2, 4]?
Answer: 0%

Question: What about the mortality at 31.3 ppm [2, 5] of the same compound?
Answer: 54.2%

Question: What about the mortality at 62.5 ppm [2, 6] of the same compound?
Answer: 100%

Question: And the mortality at 125 ppm [2, 7]?
Answer: 100%

Question: And the mortality at 250 ppm [2, 8]?
Answer: 100%

Question: And the LC50 [2, 9]?
Answer: 27.1 µg/mL (≈ 146 µM)

Question: Which results are given for `CCOC(=O)CC(SP(=S)(OC)OC)C(=O)OCC` (stereo not drawn) [malathion, reference compound]?
Answer: LC50 ([1]; 48 h): 136 µg/mL (≈ 412 µM); LC50 ([2]; 48 h): > 2000 µg/mL
